# Measured values taken from patent publication US20240342298A1, “METHODS OF TREATING TUMORS BY USING MOLECULAR CONSTRUCT” (Immunwork Inc., priority 2023, published 2024).
# Tests used:
# H929 cells = assay: alamarBlue cell viability assay, H929 cells; assay type: cell-based, human
# Description: (§1) Briefly, H929, U266-CD38^−, MM.1S, and Daudi cells were seeded at 5,000 cells/well in 96-well plates and co-cultured with fresh medium containing different test articles with the indicated concentrations at 37° C. for 5 hours, 1 day, 3 days, or 5 days. The viabilities of the cells were determined by alamarBlue™ cell viability reagent. About 10 μl alamarBlue™ cell viability reagent was added to the cells with a final concentration of 10% v/v, followed by incubating at 37° C. for 1.5 hours. The fluorescence was measured on a microplate reader in arbitrary fluorescent units following excitation at 560 nm and emission at 590 nm.
# (§2) H929 cells were incubated for 5 hours, 1 day, 3 days, or 5 days (FIGS. 12A-12D), and MM.1S, U266-CD38-, and Daudi cells were incubated for 5 days (FIGS. 12E-12G). Then, cell viability was determined.
# MM.1S cells = assay: alamarBlue cell viability assay, MM.1S cells; assay type: cell-based, human
# Description: as §1, §2
# U266-CD38- cells = assay: alamarBlue cell viability assay, U266-CD38- cells; assay type: cell-based; conditions: 5 days, FIG. 12F
# Description: as §1, §2
# H929 tumors [1] = assay: H929 xenograft tumor model (tumors 150±20 mm^3); assay type: in vivo, NOD-SCID mice; conditions: 28 days
# Description: (§3) To generate subcutaneous tumors, 2×10^7 H929 cells in PBS were mixed with 50% (v/v) extracellular matrix gel and injected subcutaneously into the flanks of NOD-SCID mice. Tumor size and body weight were recorded every 2-3 days. Volumes of subcutaneously xenografted tumors in vivo were determined using an external caliper, where tumor volume was calculated by the modified ellipsoid formula, ½×(length×width×width). […] At the end of experiments, tumors were collected and weighed. Statistical analysis was performed with Student t test and statistical differences between groups were analyzed by one-way ANOVA with Bonferroni's multiple comparison post-tests.
# H929 tumors [2] = assay: H929 xenograft tumor model, pilot study (tumors 115±15 mm^3); conditions: single dose 20 nmol/kg i.p. 7 days post-transplantation, measured for 21 days
# Description: as §3
# The tumors from all mice were excised and weighed on day 21 post drug administration.
# [3] = HPLC analysis after 5-day incubation in PBS or RPMI medium without cells; assay type: physicochemical; conditions: 1 μM in PBS, 37° C., 5 days
# Description: The total run time was 45 minutes.
# (Panels (A) and (D) of FIG. 8B).
Compound,effect of cell death (H929 cells; even at doses >20 μM),effect of cell death (MM.1S cells; even at doses >20 μM),killing effect (U266-CD38- cells),tumor growth compared to PBS (H929 tumors [1]; single dose 20 nmol/kg on day 14 after transplantation),change of tumor sizes compared to PBS (H929 tumors [2]),HPLC peaks after long-term incubation (hydrolysis) [3],cell killing (H929 cells; at doses >10 μM),cell killing (MM.1S cells; at doses >10 μM),tumor growth compared to PBS (H929 tumors [1]; daily i.p. injections)
daratumumab,no effect of cell death,no effect of cell death,did not possess any killing effect,inhibited tumor growth,could only slow down tumor growth,–,–,–,–
Nc1cccc2c1CN(C1CCC(=O)NC1=O)C2=O (stereo not shown) [lenalidomide],–,–,some killing effect at high concentrations,–,–,two additional peaks (p2 and p1) respectively corresponding to its two hydrolyzed forms,only weak killing,only weak killing,inhibited tumor growth
